# Like-named read-outs stand apart in the source and are kept apart here.
# Columns and labels:
# KRasG12C [1] = molecular target: T1, KRasG12C (Homo sapiens, UniProt P01116, G12C); assay: KRasG12C mass spectrometry adducting assay; type: binding; conditions: 10 μM test compound, 4 μM GDP loaded KRasG12C, 4 hours
# T1 construct: biotin (biotinylated); made in house
# Protocol: KRasG12C Mass Spectrometry Adducting Assay
# Enzyme solutions were prepared in assay buffer containing 20 mM HEPES (pH 7.5), 5 mM MgCl2, and 150 mM NaCl. […] The plate was sealed before reading on a Xevo G2 QTOF (Waters) and Acquity LC system (Waters). 10 μl of sample was injected onto a Xbridge BEH300; C4; 3.5 um; 2.1×50 mm column (Waters) running a 3 minute gradient. Blank samples were run in between each test sample.
# Data was analysed in Mass Lynx software (Waters), the Total ion count (TIC) trace was used and the eluted protein peak data combined. Using the combined spectrum the data was deconvoluted using MaxEnt1 method. The peak area for apo-protein KRas^G12C (APO) and KRAS+relative cmpd mass (adduct) were measured, and a percentage adduct was calculated using the following calculation: Percent adduct=100*(area of adduct peak/(sum of APO+adduct peaks)
# KRasG12C [2] = molecular target: T1, KRasG12C; assay: KRasG12C functional assay (HTRF, SOS-mediated nucleotide exchange / Raf RBD binding); type: biochemical; conditions: 4 hrs incubation with GDP loaded biotinylated KRasG12C, single experiment or average of two or more
# Protocol: KRasG12C Functional Assay
# All enzyme and substrate solutions were prepared in assay buffer containing 20 mM HEPES (pH 7.5), 5 mM MgCl2, 150 mM NaCl, and 0.01% Tween 20. […] In a separate mix 20 nM GST-Raf Ras binding domain (GST-Raf RBD, purified in house) and 4 μg/ml anti-GST XL665 antibody (Cisbio) was prepared in assay buffer containing 50 mM Potassium Fluoride and 0.05 mg/ml BSA and equilibrated for 4 hours before adding 0.6 μM Guanosine 5′-[γ-thio]triphosphate (GTPγS, Sigma) and 0.08 μM SOS (purified in house). 5 μl of the GST-RAF RBD mix was then dispensed into each well of the assay plate. […] This is detected simultaneously via the specific binding interaction between active GTPγS KRas^G12C with GST-Raf RBD which brings the europium and XL665 into close proximity enabling an increased FRET signal to be detected on a Pherastar (BMG) plate reader equipped with the HTRF filter module. […] IC50 values were calculated from normalised dose-response response FRET data curve fitted in Genedata screener (Basel, Switzerland).
# [3] = read-out: KRasG12C functional assay IC50 value
# [4] = KRasG12C functional assay IC50 value
# T1 sequence (P01116 1-188 isoform P01116-2 G12C): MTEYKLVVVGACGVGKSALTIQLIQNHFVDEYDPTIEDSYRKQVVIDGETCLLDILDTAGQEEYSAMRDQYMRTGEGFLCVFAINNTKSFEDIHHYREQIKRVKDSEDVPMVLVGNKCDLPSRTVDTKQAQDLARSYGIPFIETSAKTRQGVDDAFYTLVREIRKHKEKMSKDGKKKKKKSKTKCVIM
SMILES,KRasG12C M. S. Binding Mean adduct % (KRasG12C [1]) [%],IC50 (KRasG12C [2]; [3]) [nM],IC50 (KRasG12C [2]; [4]) [nM]
"C=CC(=O)N1CCN2c3ncnc4c(F)c(-c5c(C)ccc6c5C(=O)NC6)c(Cl)c(c34)OC[C@@H]2C1 (single isomer, unassigned) [Example 1]",98,19,
"C=CC(=O)N1CCN2c3ncnc4c(F)c(-c5c(C)ccc6c5C(=O)NC6)c(Cl)c(c34)OC[C@@H]2C1 (single isomer, unassigned) [Example 2]",25,290,
"C=CC(=O)N1C[C@H]2COc3c(Cl)c(-c4c(O)cccc4F)c(F)c4ncnc(c34)N2C[C@H]1C (single isomer, unassigned) [Example 5]",14,6350,
"C=CC(=O)N1CCN2c3ncnc4c(F)c(-c5c(C)ccc6nc[nH]c(=O)c56)c(Cl)c(c34)OC[C@@H]2C1 (single isomer, unassigned) [Example 6]",95,98,
"C=CC(=O)N1CCN2c3ncnc4c(F)c(-c5c(C)ccc6nc[nH]c(=O)c56)c(Cl)c(c34)OC[C@@H]2C1 (single isomer, unassigned) [Example 7]",,7630,
"C=CC(=O)N1CCN2c3ncnc4c(F)c(-c5c(C)ccc6[nH]cnc56)c(Cl)c(c34)OC[C@@H]2C1 (single isomer, unassigned) [Example 8]",96,12,
"C=CC(=O)N1CCN2c3ncnc4c(F)c(-c5c(C)ccc6[nH]cnc56)c(Cl)c(c34)OC[C@@H]2C1 (single isomer, unassigned) [Example 9]",22,230,
"C=CC(=O)N1CCN2c3ncnc4c(F)c(-c5c(C)cccc5O)c(Cl)c(c34)OC[C@@H]2C1 (single isomer, unassigned) [Example 12]",95,31,
"C=CC(=O)N1CCN2c3ncnc4c(F)c(-c5c(C)cccc5O)c(Cl)c(c34)OC[C@@H]2C1 (single isomer, unassigned) [Example 13]",,9700,
"CN(C)C/C=C/C(=O)N1CCN2c3ncnc4c(F)c(-c5c(O)cccc5F)c(Cl)c(c34)OC[C@@H]2C1 (single isomer, unassigned) [Example 14]",94,59,
"CN(C)C/C=C/C(=O)N1CCN2c3ncnc4c(F)c(-c5c(O)cccc5F)c(Cl)c(c34)OC[C@@H]2C1 (single isomer, unassigned) [Example 15]",,19700,
"C=CC(=O)N1CCN2c3ncnc4c(F)c(-c5c(C)ccc6cc[nH]c(=O)c56)c(Cl)c(c34)OC[C@@H]2C1 (single isomer, unassigned) [Example 16]",91,10,
"C=CC(=O)N1CCN2c3ncnc4c(F)c(-c5c(C)ccc6cc[nH]c(=O)c56)c(Cl)c(c34)OC[C@@H]2C1 (single isomer, unassigned) [Example 17]",30,373,
"C=CC(=O)N1CCN2c3ncnc4c(F)c(-c5c(F)ccc6[nH]cnc56)c(Cl)c(c34)OC[C@@H]2C1 (single isomer, unassigned) [Example 21]",,1310,
"C=CC(=O)N1CCN2c3ncnc4c(F)c(-c5c(F)ccc6[nH]ncc56)c(Cl)c(c34)OC[C@@H]2C1 (single isomer, unassigned) [Example 23]",,8960,
"C=CC(=O)N1CCN2c3ncnc4c(F)c(-c5c(F)ccc6c5ncn6C)c(Cl)c(c34)OC[C@@H]2C1 (single isomer, unassigned) [Example 25]",,13900,
"C=CC(=O)N1CCN2c3ncnc4c(F)c(-c5c(F)ccc6[nH]nnc56)c(Cl)c(c34)OC[C@@H]2C1 (single isomer, unassigned) [Example 27]",,12000,
"C=CC(=O)N1CCN2c3ncnc4c(F)c(-c5c(F)ccc6cc[nH]c(=O)c56)c(Cl)c(c34)OC[C@@H]2C1 (single isomer, unassigned) [Example 29]",,2860,
"Cc1ccc2[nH]ncc2c1-c1c(Cl)c2c3c(ncnc3c1F)N1CCN(C(=O)/C=C/CN(C)C)C[C@H]1CO2 (single isomer, unassigned) [Example 31]",,6830,
"C=CC(=O)N1C[C@H]2CCOc3c(Cl)c(-c4c(O)cccc4F)c(F)c4ncnc(c34)N2C[C@@H]1C (single isomer, unassigned) [Example 32]",,,3130
"C=CC(=O)N1C[C@H]2CCOc3c(Cl)c(-c4c(O)cccc4F)c(F)c4ncnc(c34)N2C[C@@H]1C (single isomer, unassigned) [Example 33]",,,229
"C=CC(=O)N1C[C@@H]2CCOc3c(Cl)c(-c4c(O)cccc4F)c(F)c4ncnc(c34)N2C[C@H]1C (single isomer, unassigned) [Example 38]",,,3650
"C=CC(=O)N1C[C@H]2CCOc3c(Cl)c(-c4c(O)cccc4F)c(F)c4ncnc(c34)N2C[C@H]1C (single isomer, unassigned) [Example 40]",,,2540
"C=CC(=O)N1C[C@H]2CCOc3c(Cl)c(-c4c(O)cccc4F)c(F)c4ncnc(c34)N2C[C@H]1C (single isomer, unassigned) [Example 41]",,,674
"C=CC(=O)N1C[C@@H]2CCOc3c(Cl)c(-c4c(O)cccc4F)c(F)c4ncnc(c34)N2C[C@@H]1C (single isomer, unassigned) [Example 43]",,,2900

# Further lines, with some results ahead:
KRasG12C M. S. Binding Mean adduct % (KRasG12C [1]) [%],IC50 (KRasG12C [2]; [3]) [nM],SMILES,IC50 (KRasG12C [2]; [4]) [nM]
,1210,"C=CC(=O)N1CCN2c3ncnc4c(F)c(-c5c(C)ccc6cc[nH]c(=O)c56)c(Cl)c(c34)OCCC2C1 (single isomer, unassigned) [Example 34, 8-[3-Chloro-1-fluoro-8-(prop-2-enoyl)-6,6a,7,8,9,10-hexahydro-5H-pyrazino[1′,2′:5,6][1,5]oxazocino[4,3,2-de]quinazolin-2-yl]-7-methylisoquinolin-1(2H)-one]",
,8510,"C=CC(=O)N1CCN2c3ncnc4c(F)c(-c5c(C)ccc6cc[nH]c(=O)c56)c(Cl)c(c34)OCCC2C1 (single isomer, unassigned) [Example 35, 8-[3-Chloro-1-fluoro-8-(prop-2-enoyl)-6,6a,7,8,9,10-hexahydro-5H-pyrazino[1′,2′:5,6][1,5]oxazocino[4,3,2-de]quinazolin-2-yl]-7-methylisoquinolin-1(2H)-one]",
,2,"C=CC(=O)N1CCN2c3ncnc4c(F)c(-c5c(C)ccc6cc[nH]c(=O)c56)c(Cl)c(c34)OCCC2C1 (single isomer, unassigned) [Example 36, 8-[3-Chloro-1-fluoro-8-(prop-2-enoyl)-6,6a,7,8,9,10-hexahydro-5H-pyrazino[1′,2′:5,6][1,5]oxazocino[4,3,2-de]quinazolin-2-yl]-7-methylisoquinolin-1(2H)-one]",
,180,"C=CC(=O)N1CCN2c3ncnc4c(F)c(-c5c(C)ccc6cc[nH]c(=O)c56)c(Cl)c(c34)OCCC2C1 (single isomer, unassigned) [Example 37, 8-[3-Chloro-1-fluoro-8-(prop-2-enoyl)-6,6a,7,8,9,10-hexahydro-5H-pyrazino[1′,2′:5,6][1,5]oxazocino[4,3,2-de]quinazolin-2-yl]-7-methylisoquinolin-1(2H)-one]",
,62,"C=CC(=O)N1CCN2c3ncnc4c(Cl)c(-c5c(O)cccc5F)c(F)c(c34)OC[C@@H]2C1 (single isomer, unassigned) [Example 44]",
,89,"C=CC(=O)N1CCN2c3ncnc4c(Cl)c(-c5c(O)cccc5F)c(F)c(c34)OC[C@@H]2C1 (single isomer, unassigned) [Example 45]",
,59,"C=CC(=O)N1C[C@H]2COc3c(Cl)c(-c4c(C)ccc5[nH]cnc45)c(F)c4ncnc(c34)N2C[C@H]1C (single isomer, unassigned) [Example 46]",
,11200,"C=CC(=O)N1C[C@H]2COc3c(Cl)c(-c4c(C)ccc5[nH]cnc45)c(F)c4ncnc(c34)N2C[C@H]1C (single isomer, unassigned) [Example 47]",
,46,"C=CC(=O)N1C[C@H]2COc3c(Cl)c(-c4c(C)ccc5cc[nH]c(=O)c45)c(F)c4ncnc(c34)N2C[C@H]1C (single isomer, unassigned) [Example 48]",
,30000,"C=CC(=O)N1C[C@H]2COc3c(Cl)c(-c4c(C)ccc5cc[nH]c(=O)c45)c(F)c4ncnc(c34)N2C[C@H]1C (single isomer, unassigned) [Example 49]",
,140,"Cc1ccc2[nH]cnc2c1-c1c(Cl)c2c3c(ncnc3c1F)N1C[C@@H](C)N(C(=O)/C=C/CN(C)C)C[C@H]1CO2 (single isomer, unassigned) [Example 50]",
,1750,"Cc1ccc2[nH]cnc2c1-c1c(Cl)c2c3c(ncnc3c1F)N1C[C@@H](C)N(C(=O)/C=C/CN(C)C)C[C@H]1CO2 (single isomer, unassigned) [Example 51]",
